The subject of one experiment is H9c2. The experiment in a line: protection of cardiomyocytes from stress damage, SAR follow-up, cell-based, panel, H9c2 and HL-1, H2O2, 2-deoxyglucose, ATP luminescence (AID 651642).
The test system of the next experiment is HL-1. The description is as above.
[1] abbreviates: H9c2/HL-1 cardiomyocyte 2-deoxyglucose damage, mean of runs, with 2-deoxyglucose, mean IC50 across panel.
The mark [2] stands for this setting: H9c2/HL-1 cardiomyocyte 2-deoxyglucose damage, run 1, with 2-deoxyglucose.
Setting [3] is: H9c2/HL-1 cardiomyocyte 2-deoxyglucose damage, run 2, with 2-deoxyglucose.
Setting [4] is: H9c2/HL-1 cardiomyocyte 2-deoxyglucose damage, run 3, with 2-deoxyglucose.
Where [5] appears, read: H9c2/HL-1 cardiomyocyte 2-deoxyglucose damage, run 4, with 2-deoxyglucose.
Setting [6] is: H9c2/HL-1 cardiomyocyte H2O2 oxidative damage, run 1, with H2O2.
The mark [7] stands for this setting: H9c2/HL-1 cardiomyocyte H2O2 oxidative damage, run 2, with H2O2.
The mark [8] stands for this setting: H9c2/HL-1 cardiomyocyte H2O2 oxidative damage, run 3, with H2O2.
[9] abbreviates: H9c2/HL-1 cardiomyocyte H2O2 oxidative damage, run 4, with H2O2.
Setting [10] is: H9c2/HL-1 cardiomyocyte H2O2 oxidative damage, mean of runs, with H2O2, mean IC50 across panel.

pIC50: −log10 of the molar value.

The results in this text go back to PubChem BioAssay AID651642 (Sanford-Burnham Center for Chemical Genomics, 2012).

`COC(=O)CNC(=O)c1cccc(NC(=O)c2cc(-c3cc(OC)c(OC)c(OC)c3)nc3ccccc23)c1`: the pIC50 with H9c2 (setting [1]) was 5.12; in the experiment on H9c2 (setting [2]), 5.05; with H9c2 (setting [3]), 5.03; in the experiment with H9c2 (setting [4]) it was 5.24; in the experiment with H9c2 (setting [5]), 5.20; with H9c2 (setting [6]), < 4.10. In addition, the pIC50 in the experiment on H9c2 (setting [7]) was 5.77; with H9c2 (setting [8]), < 4.10; in the experiment with H9c2 (setting [9]), < 4.10; in the experiment with HL-1 (setting [1]), 5.71; with HL-1 (setting [2]) it was 5.90; in the experiment with HL-1 (setting [3]), 5.85. The pIC50 in the experiment on HL-1 (setting [4]) is 5.63; with HL-1 (setting [5]), 5.54; with HL-1 (setting [10]), 5.37; in the experiment on HL-1 (setting [6]), 5.59; with HL-1 (setting [7]) it was 5.46; in the experiment with HL-1 (setting [8]) it was 5.33. The same compound showed a negative-log IC50 (pIC50) with HL-1 (setting [9]) of 5.20.
Regarding `COc1ccc2c(c1OC)C(=O)N1c3ccccc3C(=O)N(Cc3cccc(Br)c3)C21` (stereo not given), the pIC50 in the experiment on H9c2 (setting [1]) is < 4.10; in the experiment on H9c2 (setting [2]) it was < 4.10; in the experiment with H9c2 (setting [3]) it was < 4.10; with H9c2 (setting [4]), < 4.10; in the experiment on H9c2 (setting [5]), < 4.10; with H9c2 (setting [6]) it was 5.65. The pIC50 is 5.42 with H9c2 (setting [7]); < 4.10 in the experiment on H9c2 (setting [8]); < 4.10 in the experiment on H9c2 (setting [9]); 5.13 with HL-1 (setting [1]); 5.30 in the experiment with HL-1 (setting [2]); 5.25 with HL-1 (setting [3]). For the same compound, the negative logarithm of the IC50 (pIC50) in the experiment with HL-1 (setting [4]) was 5.10; with HL-1 (setting [5]), 4.95; in the experiment on HL-1 (setting [10]) it was < 4.10; in the experiment on HL-1 (setting [6]), < 4.10; in the experiment on HL-1 (setting [7]), < 4.10; in the experiment with HL-1 (setting [8]) it was < 4.10. Moreover, in the experiment with HL-1 (setting [9]), the pIC50 was < 4.10.
As to `COc1ccc2c(c1OC)C(=O)N1c3ccccc3C(=O)N(Cc3c(Cl)cccc3Cl)C21` (stereo not given), the pIC50 is < 4.10 with H9c2 (setting [1]); < 4.10 with H9c2 (setting [2]); < 4.10 in the experiment on H9c2 (setting [3]); < 4.10 in the experiment with H9c2 (setting [4]); < 4.10 in the experiment with H9c2 (setting [5]); 5.47 in the experiment with H9c2 (setting [6]). Also, the pIC50 in the experiment with H9c2 (setting [7]) was 5.43; with H9c2 (setting [8]) it was < 4.10; with H9c2 (setting [9]), < 4.10; in the experiment on HL-1 (setting [2]), 5.20; with HL-1 (setting [3]), 5.19; with HL-1 (setting [4]), < 4.10. In addition, the pIC50 with HL-1 (setting [5]), with HL-1 (setting [10]), in the experiment with HL-1 (setting [6]), in the experiment with HL-1 (setting [7]), in the experiment on HL-1 (setting [8]) and with HL-1 (setting [9]) was < 4.10 in each case.
As to `CCOC(=O)c1cccc(NC(=O)CNC(=O)c2cc(-c3cc(OC)c(OC)c(OC)c3)nc3ccc(OC)cc23)c1`, the negative-log IC50 (pIC50) in the experiment on H9c2 (setting [1]) is 5.50; in the experiment on H9c2 (setting [2]), 5.35; with H9c2 (setting [3]), 5.32; in the experiment on H9c2 (setting [4]) it was 5.77; in the experiment on H9c2 (setting [5]), 5.76; in the experiment with H9c2 (setting [10]) it was 6.13. In addition, the pIC50 in the experiment with H9c2 (setting [6]) is 6.02; in the experiment with H9c2 (setting [7]), 6.01; in the experiment on H9c2 (setting [8]), 6.32; in the experiment with H9c2 (setting [9]) it was 6.27; with HL-1 (setting [1]), 5.64; in the experiment on HL-1 (setting [2]), 5.80. In addition, the negative-log IC50 (pIC50) with HL-1 (setting [3]) is 5.76; with HL-1 (setting [4]) it was 5.53; in the experiment on HL-1 (setting [5]), 5.53; in the experiment on HL-1 (setting [10]), 5.45; with HL-1 (setting [6]) it was 5.43; with HL-1 (setting [7]), 5.42. Moreover, the pIC50 in the experiment on HL-1 (setting [8]) was 5.58; in the experiment on HL-1 (setting [9]) it was 5.39.
In the case of `COc1cc(-c2cc(C(=O)Nc3cccc(C(C)=O)c3)c3cc(F)ccc3n2)cc(OC)c1OC`, the pIC50 with H9c2 (setting [1]) was < 4.10; in the experiment on H9c2 (setting [2]), < 4.10; with H9c2 (setting [3]), < 4.10; in the experiment with H9c2 (setting [4]) it was < 4.10; in the experiment with H9c2 (setting [5]), < 4.10; in the experiment on H9c2 (setting [10]), 5.16. Further, the pIC50 is 5.27 in the experiment on H9c2 (setting [6]); 5.14 in the experiment on H9c2 (setting [7]); 5.34 in the experiment on H9c2 (setting [8]); 4.98 in the experiment on H9c2 (setting [9]); < 4.10 in the experiment with HL-1 (setting [1]); < 4.10 in the experiment with HL-1 (setting [2]). The pIC50 with HL-1 (setting [3]) was < 4.10; with HL-1 (setting [4]), < 4.10; in the experiment with HL-1 (setting [5]), < 4.10; in the experiment on HL-1 (setting [10]) it was 5.43; in the experiment on HL-1 (setting [6]) it was 5.60; in the experiment on HL-1 (setting [7]) it was 5.43. Further, the pIC50 with HL-1 (setting [8]) is 5.48; in the experiment with HL-1 (setting [9]) it was 5.28.
Consider `COc1cc(-c2cc(C(=O)Nc3cccc(C(=O)Nc4ccccc4)c3)c3ccccc3n2)cc(OC)c1OC`, for which the pIC50 with H9c2 (setting [1]) was 5.33; in the experiment on H9c2 (setting [2]), 5.24; in the experiment with H9c2 (setting [3]), 5.24; in the experiment with H9c2 (setting [4]), 5.45; in the experiment with H9c2 (setting [5]) it was 5.41; in the experiment on H9c2 (setting [10]), 5.89. The negative-log IC50 (pIC50) was 5.81 in the experiment with H9c2 (setting [6]); 5.71 with H9c2 (setting [7]); 6.14 in the experiment on H9c2 (setting [8]); 6.05 in the experiment on H9c2 (setting [9]); 5.92 in the experiment on HL-1 (setting [1]); 6.15 with HL-1 (setting [2]). Also, the pIC50 was 6.10 with HL-1 (setting [3]); 5.84 with HL-1 (setting [4]); 5.74 in the experiment on HL-1 (setting [5]); < 4.10 in the experiment on HL-1 (setting [6]); 5.81 in the experiment with HL-1 (setting [7]); 5.77 in the experiment with HL-1 (setting [8]). This compound also gave a pIC50 with HL-1 (setting [9]) of 5.67.
